Assay results reported in patent US20170000889A1, “STABLE BROMFENAC OPHTHALMIC SOLUTION” (SENTISS PHARMA PRIVATE LIMITED, priority 2013, published 2017).

Experiment: Haziness of citrate-buffered bromfenac formulation on addition of BKC, effect of surfactants
Assay type: physicochemical
Settings: for Degradation of the bromfenac solution with the surfactant: compared among different surfactants; for Haziness after addition of BKC to the citrate formulation: surfactant added to citrate-buffered bromfenac solution with benzalkonium chloride
Protocol: In yet other embodiment of the present invention, citrate buffer is used instead of borate buffer but when benzalkonium chloride (BKC) was added in the citrate formulation it causes haziness of the formulation.
The inventors of the present invention extensively studied how to overcome the haziness occurred during the addition of BKC.

| Substance | Degradation of the bromfenac solution with the surfactant | Haziness after addition of BKC to the citrate formulation |
| --- | --- | --- |
| polyoxyl-15-hydroxystearate | least amount of degradation | remove the haziness |
| polysorbate 80 | least amount of degradation | remove the haziness |
